The values below come from US9782398B2, “Pharmaceutical compositions comprising an antipsychotic drug and a VMAT2 inhibitor and uses thereof” (NEUROCRINE BIOSCIENCES, INC., priority 2014, dated 2017).

The test system of this assay is Male Wistar rats. As to the kind of experiment: Conditioned avoidance response (CAR) test of antipsychotic activity. Format: in vivo, rat. Conditions: for ED50: Rattus norvegicus, ip, read-out: ED50 (escape response), dose required to produce 50% of the maximum response; for dose of compound required to produce 5 escapes / dose of compound required to produce 8 escapes: from fitted line. From the text:
In the CAR paradigm, a rat is trained in a two chamber shuttle box to respond to a conditioned stimulus (auditory) by negative reinforcement. If the animal fails to move to the other chamber upon presentation of an auditory stimulus, a mild foot shock is applied to the side where the rat is located. The rat learns to avoid the mild foot shock by moving to the other chamber upon initiation of the auditory signal, termed a conditioned avoidance response. Crossing to the other chamber during administration of the shock is termed an escape response. If a rat fails to move to the other chamber even upon administration of the foot shock, the rat is considered to have an escape failure.
Rats were trained every day for 3 to 4 weeks. In the training session, rats were placed in the CAR two-way shuttle box and the training period of 20 trials ensued. A trial consisted of a 10-sec presentation of an 80 dB white noise followed by a scrambled 0.6 mA foot shock lasting up to 20 sec. The inter-trial interval ranged from 20-60 sec. The rat learned to avoid shock by moving from one compartment to the other when the conditioned stimulus was presented (a conditioned avoidance response). A rat was deemed sufficiently trained if it avoided the shock when presented with the conditioned stimulus at least 19 times out of the 20 trials.
On test day, trained animals were acclimated in the test room for 30 minutes prior to testing. They were then dosed with compound and placed in the CAR two-way shuttle box. In the test, 20 trials were performed on each rat. In each trial the conditioned stimulus was applied (10-sec presentation of 80 dB white noise), followed by the foot shock (a scrambled 0.6 mA foot shock lasting up to 20 sec). If the animal moved to the other chamber on presentation of the conditioned stimulus, it was scored as a conditioned avoidance response. If it moved upon presentation of the foot shock, it was scored as an escape. […] Antipsychotic efficacy is evident by an increase in the number of escapes. Data were analyzed by analysis of variance (ANOVA) followed by post-hoc comparisons with the Bonferroni Test when appropriate. An effect is considered significant if p<0.05. Outliers defined as two standard deviations above or below the mean were detected and were removed from all analysis. Results are reported as mean±SEM for number of escapes.
Animals: Male Wistar rats from Harlan (Indianapolis, Ind.) were used in the study. Upon receipt, rats were assigned unique identification numbers and were group housed with 3 rats per cage in polycarbonate cages with micro-isolator filter tops. All rats were examined, handled, and weighed prior to initiation of the study to assure adequate health and suitability. The rats were maintained at 12/12 light/dark cycle with lights on at 6:00 A.M. The room temperature was maintained between 20 and 23° C. with a relative humidity maintained around 50%. Chow and water were provided ad libitum for the duration of the study. For each test, animals were randomly assigned across treatment groups. Each treatment group contained 10 animals at time of testing.
Test Compounds: Risperidone (0.03, 0.1, 0.3, and 1 mg/kg) was dissolved in 10% DMSO and administered i.p. 30 min prior to testing at a dose volume of 1 ml/kg. […] The vehicle control group received 10% DMSO (i.p., 30 min pretreatment, 1 ml/kg) immediately followed by administration of sterile water (p.o., 1 ml/kg).
Test Compounds: Olanzapine (0.3, 0.6, 1 and 3 mg/kg) was dissolved in 10% DMSO and administered i.p. 30 min prior to testing at a dose volume of 1 ml/kg.
10% DMSO (i.p., 30 min pretreatment, 1 ml/kg) immediately followed by administration of sterile water (p.o., 1 ml/kg) was used as the vehicle control group.
Test Compounds: Risperidone (0.1, 0.3, and 1 mg/kg) was dissolved in 10% DMSO and administered i.p. 30 min prior to testing at a dose volume of 1 ml/kg.

[1] abbreviates: combination with R,R,R-DHTBZ 0.15 mg/kg vs olanzapine singly, rat.
The mark [2] stands for this setting: olanzapine i.p. administered singly, rat.
Where [3] appears, read: combination with Compound 5-1 0.3 mg/kg vs risperidone singly, rat.
Setting [4] is: combination with R,R,R-DHTBZ 0.15 mg/kg vs risperidone singly, rat.
Where [5] appears, read: risperidone i.p. administered singly, rat.

Entries after “also recorded” stand apart in the source; their conditions may differ.

In the case of `COc1cc2c(cc1OC)[C@H]1C[C@@H](CO)[C@H](CC(C)C)CN1CC2` [Compound 5-1, [(2R,3S,11bR)-9,10-Dimethoxy-3-(2-methylpropyl)-1H,2H,3H,4H,6H,7H,11bH-pyrido[2,1-a]isoquinolin-2-yl]methanol], the “number of escapes compared to vehicle” value (Compound 5-1 0.3 mg/kg p.o. administered singly, 60 min prior to testing, rat, 0.3 mg/kg) was “did not result in changes from the vehicle results; also recorded: showed no antipsychotic activity; also recorded: did not increase”.
As for `COc1cc2c(cc1OC)[C@H]1C[C@@H](O)[C@H](CC(C)C)CN1CC2` [R,R,R-DHTBZ, (2R,3R,11bR)-3-isobutyl-9,10-dimethoxy-1,3,4,6,7,11b-hexahydro-2H-pyrido[2,1-a]isoquinolin-2-ol], the “number of escapes compared to vehicle” value (R,R,R-DHTBZ 0.15 mg/kg p.o. administered singly, 30 min prior to testing, rat) is on record as “did not increase; also recorded: did not result in changes from the vehicle results” and the “number of escapes compared to vehicle” value (R,R,R-DHTBZ 0.15 mg/kg p.o. administered singly, 30 min prior to testing, rat, listed as R,R,R DHTBZ) was “showed no antipsychotic activity”.
For the molecule `Cc1cc2c(s1)Nc1ccccc1N=C2N1CCN(C)CC1` [olanzapine], the ED50 – broadly, the dose at which the effect has come halfway, by size or by number of responders – amounted to 1.2 mg/kg. For the same molecule, the “reduction of the olanzapine dose” value (combination with Compound 5-1 0.3 mg/kg vs olanzapine singly, rat) was 80%. Further, under setting [1], the “decrease of ED50 of olanzapine” value is “approximately 2 fold” and the “reduction of the olanzapine dose” value was found to be 50%. Under setting [2], the “dose necessary to show antipsychotic efficacy in the CAR paradigm” value worked out at 1 mg/kg and the “dose of compound required to produce 5 escapes” value is recorded as 0.93 mg/kg. In addition, where the note is “olanzapine i.p. in combination with Compound 5-1 0.3 mg/kg p.o., rat”, the “dose of compound required to produce 5 escapes” value is 0.18 mg/kg. For the same molecule, the “dose of olanzapine resulting in antipsychotic activity” value (olanzapine i.p. with addition of Compound 5-1 0.3 mg/kg p.o., rat) is given as 0.6 mg/kg. In addition, the “dose of olanzapine resulting in antipsychotic activity” value (olanzapine i.p. with addition of R,R,R-DHTBZ 0.15 mg/kg p.o., rat) is 0.6 mg/kg.
As for `Cc1nc2n(c(=O)c1CCN1CCC(c3noc4cc(F)ccc34)CC1)CCCC2` [risperidone], the ED50 was 0.14 mg/kg. Further, under setting [3], the “decrease of risperidone dose required to produce 8 escapes” value was “approximately 7 fold” and the “reduction of the risperidone dose” value came to 86%. Also, under setting [4], the “decrease of ED50 of risperidone” value was “approximately 6 fold” and the “reduction of the risperidone dose” value stood at 83%. Besides, the “number of escapes compared to vehicle” value (risperidone 0.1 mg/kg i.p. administered singly, 30 min prior to testing, rat) is given as “did not result in changes from the vehicle results; also recorded: did not increase”. For the same molecule, under setting [5], the “dose necessary to show antipsychotic efficacy in the CAR paradigm” value was 0.3 mg/kg and the “dose of compound required to produce 8 escapes” value turned out to be 0.26 mg/kg. Where the note is “risperidone i.p. in combination with Compound 5-1 0.3 mg/kg p.o., rat”, the “dose of compound required to produce 8 escapes” value was 0.038 mg/kg. For the setting “risperidone i.p. with addition of Compound 5-1 0.3 mg/kg p.o., rat”, the “doses of risperidone resulting in antipsychotic activity” value stood at 0.1 mg/kg.
